In patent US20260125378A2, “Heterocyclic Compounds” (BeOne Medicines I GmbH, priority 2023, published 2026):

How the values were obtained:
[1] = molecular target: T1, Full length DGKζ (in-house protein M1-V929) (Homo sapiens, UniProt Q13574); assay: Biochemical DGK IC50 assay (ADP-Glo, lipid micelle substrate), DGKζ; settings: 1 hour preincubation, 1 hour reaction, room temperature
T1 construct: His (N); TEV site (N); made in house; host or cells: Sf9 insect cells (Bac-to-Bac baculovirus)
Procedure, shortened: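 Full-length human DGKζ (M1-V929, His-TEV tagged, Sf9 baculovirus-expressed) with DAG/PS lipid micelle substrate in octyl glucoside, at room temperature in 50 mM HEPES, 10 mM MgCl2, 0.01 mM CaCl2 buffer.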

[2] = molecular target: T2, Full length DGKα (D21-10BG, SignalChem) (Homo sapiens, UniProt P23743); assay: Biochemical DGK IC50 assay (ADP-Glo, lipid micelle substrate), DGKα; settings: 1 hour preincubation, 1 hour reaction, room temperature
T2 construct: Full length DGKα (D21-10BG, SignalChem); purchased SignalChem D21-10BG
T2 sequence (P23743 whole entry): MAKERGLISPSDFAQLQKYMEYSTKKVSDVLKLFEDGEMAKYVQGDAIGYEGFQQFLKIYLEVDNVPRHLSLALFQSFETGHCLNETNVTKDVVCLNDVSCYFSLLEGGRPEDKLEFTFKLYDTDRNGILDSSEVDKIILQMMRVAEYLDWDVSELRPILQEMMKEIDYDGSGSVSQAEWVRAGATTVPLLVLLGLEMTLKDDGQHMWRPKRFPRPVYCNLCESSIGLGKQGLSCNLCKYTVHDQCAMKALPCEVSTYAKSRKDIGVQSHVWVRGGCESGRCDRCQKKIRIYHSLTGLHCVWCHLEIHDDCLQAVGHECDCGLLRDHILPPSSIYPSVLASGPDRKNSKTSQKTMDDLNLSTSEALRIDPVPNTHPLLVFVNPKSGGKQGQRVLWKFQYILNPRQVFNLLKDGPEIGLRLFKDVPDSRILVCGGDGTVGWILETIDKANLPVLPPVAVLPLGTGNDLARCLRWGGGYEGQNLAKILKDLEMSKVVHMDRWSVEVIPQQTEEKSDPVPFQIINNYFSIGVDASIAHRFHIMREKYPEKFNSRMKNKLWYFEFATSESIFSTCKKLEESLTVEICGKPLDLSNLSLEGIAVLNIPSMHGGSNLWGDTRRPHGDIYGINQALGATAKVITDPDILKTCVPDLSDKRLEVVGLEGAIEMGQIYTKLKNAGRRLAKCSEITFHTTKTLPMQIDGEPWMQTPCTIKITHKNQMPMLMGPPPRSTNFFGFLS
Procedure, shortened: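 Full-length human DGKα with DAG/PS lipid micelle substrate (in octyl glucoside buffer), reacted 1 h at room temperature in 50 mM HEPES, 10 mM MgCl2, 0.01 mM CaCl2, 0.1 mM Na3VO4, 0.01% BSA, 0.005% Tween-20. ADP formed read by ADP-Glo luminescence; IC50 from inhibition across increasing compound concentrations.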

T1 sequence (Q13574 1-929 isoform Q13574-4): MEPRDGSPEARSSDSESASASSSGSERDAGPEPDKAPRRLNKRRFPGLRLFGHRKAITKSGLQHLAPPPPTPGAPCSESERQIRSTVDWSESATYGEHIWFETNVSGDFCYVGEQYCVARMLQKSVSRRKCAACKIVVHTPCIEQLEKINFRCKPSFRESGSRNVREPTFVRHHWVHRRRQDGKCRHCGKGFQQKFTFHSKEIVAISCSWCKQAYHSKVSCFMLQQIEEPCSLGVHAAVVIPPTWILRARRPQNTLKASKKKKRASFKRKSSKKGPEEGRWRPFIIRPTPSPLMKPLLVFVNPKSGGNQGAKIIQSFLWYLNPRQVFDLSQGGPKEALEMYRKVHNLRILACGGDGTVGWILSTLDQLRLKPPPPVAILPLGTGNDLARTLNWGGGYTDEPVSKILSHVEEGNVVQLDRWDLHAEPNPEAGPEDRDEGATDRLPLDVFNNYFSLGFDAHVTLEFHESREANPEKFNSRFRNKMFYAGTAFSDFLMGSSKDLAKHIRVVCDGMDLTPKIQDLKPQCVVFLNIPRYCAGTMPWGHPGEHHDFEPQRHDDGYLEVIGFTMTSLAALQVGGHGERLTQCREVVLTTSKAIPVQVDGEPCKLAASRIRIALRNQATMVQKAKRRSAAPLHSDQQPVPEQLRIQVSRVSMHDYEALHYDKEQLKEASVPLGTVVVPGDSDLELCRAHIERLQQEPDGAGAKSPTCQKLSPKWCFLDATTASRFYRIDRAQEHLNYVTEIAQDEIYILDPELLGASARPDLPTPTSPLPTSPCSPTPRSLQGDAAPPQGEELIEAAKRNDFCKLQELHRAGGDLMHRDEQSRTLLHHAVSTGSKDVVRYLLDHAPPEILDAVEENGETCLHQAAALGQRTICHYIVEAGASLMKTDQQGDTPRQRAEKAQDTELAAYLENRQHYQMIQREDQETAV

| Structure (SMILES) | IC50 [1] [µM] | IC50 [2] [µM] |
| --- | --- | --- |
| CCn1c(CC#N)nc2c(N3C[C@@H](C)N(C(C)c4ccc5c(c4)OC(C)(CC)O5)C[C@@H]3C)nc(=O)n(C)c21 (stereo partly drawn) [Compound A168, 2-(9-ethyl-6-((2S,5R)-4-(1-(2-ethyl-2-methylbenzo[d][1,3]dioxol-5-yl)ethyl)-2,5-dimethylpiperazin-1-yl)-3-methyl-2-oxo-3,9-dihydro-2H-purin-8-yl)acetonitrile] | 0.026 | 64.3 |
| CCn1c(CC#N)nc2c(N3C[C@@H](C)N(C(C)c4nc5c(cc4F)OCC(C)(C)O5)C[C@@H]3C)nc(=O)n(C)c21 (single isomer, unassigned) [Compound A161b] | 2.63 | > 150 |
| CC(c1ccc2c(c1)OC(C)(C)O2)N1C[C@H](C)N(c2nc(=O)n(C)c3c2nc(CC#N)n3CC(F)F)C[C@H]1C (stereo partly drawn) [Compound A166, 2-(9-(2,2-difluoroethyl)-6-((2S,5R)-4-(1-(2,2-dimethylbenzo[d][1,3]dioxol-5-yl)ethyl)-2,5-dimethylpiperazin-1-yl)-3-methyl-2-oxo-3,9-dihydro-2H-purin-8-yl)acetonitrile] | 0.014 | 26.1 |
| CCn1c(CC#N)nc2c(N3C[C@@H](C)N(C(C)c4ccc5c(c4)OC(C)(C)O5)C[C@@H]3C)nc(=O)n(C)c21 (mixture of isomers) [Compound A85, 2-(6-((2S,5R)-4-(1-(2,2-dimethylbenzo[d][1,3]dioxol-5-yl)ethyl)-2,5-dimethylpiperazin-1-yl)-9-ethyl-3-methyl-2-oxo-3,9-dihydro-2H-purin-8-yl)acetonitrile] | 0.025 | 103 |
| CCn1c(CC#N)nc2c(N3C[C@@H](C)N(C(C)c4ccc5c(n4)OC(C)(C)CO5)C[C@@H]3C)nc(=O)n(C)c21 (single isomer, unassigned) [Compound A74a] | 0.046 | > 150 |
| CC[C@H]1CN(C(C)c2ccc(F)cc2C(F)(F)F)[C@H](CC)CN1c1nc(=O)n(C)c2c1nc(CC#N)n2C (single isomer, unassigned) [Compound A34a] | 0.392 | > 10 |
| CCn1c(CC#N)nc2c(N3C[C@@H](C)N(C(C)c4cccc(N5CCOCC5)c4)C[C@@H]3C)nc(=O)n(C)c21 (stereo partly drawn) [Compound A141, 2-(6-((2S,5R)-2,5-dimethyl-4-(1-(3-morpholinophenyl)ethyl)piperazin-1-yl)-9-ethyl-3-methyl-2-oxo-3,9-dihydro-2H-purin-8-yl)acetonitrile] | 1.29 | > 150 |
| CCn1c(CC#N)nc2c(N3C[C@@H](C)N(C(C)c4ccc(F)c5c4OC(C)(C)O5)C[C@@H]3C)nc(=O)n(C)c21 (single isomer, unassigned) [Compound A185a] | 0.806 | 121 |
| CCn1c(CC#N)nc2c(N3C[C@@H](C)N(C(C)c4ccc(F)cc4C(F)(F)F)C[C@@H]3C)nc(=O)n(C)c21 (single isomer, unassigned) [Compound A35b] | 0.024 | > 150 |
| CCn1c(CC#N)nc2c(N3C[C@@H](C)N(C(C)c4ccc5c(c4)OC(F)(F)CO5)C[C@@H]3C)nc(=O)n(C)c21 (single isomer, unassigned) [Compound A80b] | 0.664 | > 150 |
| COC[C@H]1CN(C(C)c2ccc(F)cc2C(F)(F)F)[C@H](C)CN1c1nc(=O)n(C)c2c1nc(CC#N)n2C (single isomer, unassigned) [Compound A10a] | 0.405 | > 10 |
| CC(c1ccc2nccnc2c1)N1C[C@H](C)N(c2cc(=O)n(C)c3sc(CC#N)nc23)C[C@H]1C (single isomer, unassigned) [Compound A194a] | 0.007 | 3.95 |
| CCn1c(CC#N)nc2c(N3C[C@@H](C)N(C(C)c4cnc5c(c4)OC(C)(C)CO5)C[C@@H]3C)nc(=O)n(C)c21 (stereo partly drawn) [Compound A76, 2-(6-((2S,5R)-4-(1-(2,2-dimethyl-2,3-dihydro-[1,4]dioxino[2,3-b]pyridin-7-yl)ethyl)-2,5-dimethylpiperazin-1-yl)-9-ethyl-3-methyl-2-oxo-3,9-dihydro-2H-purin-8-yl)acetonitrile] | 0.419 | > 150 |
| CCn1c(CC#N)nc2c(N3C[C@@H](C)N(C(C)c4cc(Cl)c5c(c4)OC(C)(C)CO5)C[C@@H]3C)nc(=O)n(C)c21 (stereo partly drawn) [Compound A72, 2-(6-((2S,5R)-4-(1-(8-chloro-3,3-dimethyl-2,3-dihydrobenzo[b][1,4]dioxin-6-yl)ethyl)-2,5-dimethylpiperazin-1-yl)-9-ethyl-3-methyl-2-oxo-3,9-dihydro-2H-purin-8-yl)acetonitrile] | 0.064 | > 150 |
| CCn1c(CC#N)nc2c(N3C[C@@H](C)N(C(C)c4ccc5c(c4F)OC(C)(C)O5)C[C@@H]3C)c(F)c(=O)n(C)c21 (mixture of isomers) [Compound A190, 2-(3-ethyl-6-fluoro-7-((2S,5R)-4-(1-(4-fluoro-2,2-dimethylbenzo[d][1,3]dioxol-5-yl)ethyl)-2,5-dimethylpiperazin-1-yl)-4-methyl-5-oxo-4,5-dihydro-3H-imidazo[4,5-b]pyridin-2-yl)acetonitrile] | 0.013 | 106 |
| CC(c1ccc2c(c1)OCCO2)N1C[C@H](C)N(c2c(F)c(=O)n(C)c3c2nc(CC#N)n3C)C[C@H]1C (single isomer, unassigned) [Compound A18b] | 0.032 | 6.38 |
| Cc1ccc(C(C)N2C[C@H](C)N(c3c(F)c(=O)n(C)c4c3nc(CC#N)n4C)C[C@H]2C)c(C(F)(F)F)c1 (single isomer, unassigned) [Compound A15a] | 1.41 | > 10 |
| CCn1c(CC#N)nc2c(N3C[C@@H](C)N(C(C)c4ccc5c(c4)OC(C)(C)CC5=O)C[C@@H]3C)nc(=O)n(C)c21 (stereo partly drawn) [Compound A81, 2-(6-((2S,5R)-4-(1-(2,2-dimethyl-4-oxochroman-7-yl)ethyl)-2,5-dimethylpiperazin-1-yl)-9-ethyl-3-methyl-2-oxo-3,9-dihydro-2H-purin-8-yl)acetonitrile] | 0.007 | > 150 |
| CCn1c(CC#N)nc2c(N3C[C@@H](C)N(C(C)c4cccc(N5CC6(COC6)C5)c4)C[C@@H]3C)nc(=O)n(C)c21 (stereo partly drawn) [Compound A140, 2-(6-((2S,5R)-4-(1-(3-(2-oxa-6-azaspiro[3.3]heptan-6-yl)phenyl)ethyl)-2,5-dimethylpiperazin-1-yl)-9-ethyl-3-methyl-2-oxo-3,9-dihydro-2H-purin-8-yl)acetonitrile] | 0.594 | > 150 |

The next lines start with the values.

| IC50 [1] [µM] | IC50 [2] [µM] | Structure (SMILES) |
| --- | --- | --- |
| 0.014 | 44.3 | CC(c1ccc(F)cc1C(F)F)N1C[C@H](C)N(c2nc(=O)n(C)c3c2nc(CC#N)n3C)C[C@H]1C (stereo partly drawn) [Compound A30, 2-(6-((2S,5R)-4-(1-(2-(difluoromethyl)-4-fluorophenyl)ethyl)-2,5-dimethylpiperazin-1-yl)-3,9-dimethyl-2-oxo-3,9-dihydro-2H-purin-8-yl)acetonitrile] |
| 0.02 | 13.3 | CC(c1ccc2c(c1)OCCO2)N1C[C@H](C)N(c2nc(=O)n(C)c3c2nc(CC#N)n3C)C[C@H]1C (single isomer, unassigned) [Compound A58a] |
| 0.029 | 44.6 | CC(c1ccc2nccnc2c1)N1C[C@H](C)N(c2nc(=O)n(C)c3c2nc(CC#N)n3C)C[C@H]1C (stereo partly drawn) [Compound A48, 2-(6-((2S,5R)-2,5-dimethyl-4-(1-(quinoxalin-6-yl)ethyl)piperazin-1-yl)-3,9-dimethyl-2-oxo-3,9-dihydro-2H-purin-8-yl)acetonitrile] |
| 0.006 | 69 | CCn1c(CC#N)nc2c(N3C[C@@H](C)N(C(C)c4ccc5c(c4)OC(C)(C)C5=O)C[C@@H]3C)nc(=O)n(C)c21 (stereo partly drawn) [Compound A179, 2-(6-((2S,5R)-4-(1-(2,2-dimethyl-3-oxo-2,3-dihydrobenzofuran-6-yl)ethyl)-2,5-dimethylpiperazin-1-yl)-9-ethyl-3-methyl-2-oxo-3,9-dihydro-2H-purin-8-yl)acetonitrile] |
| 4.23 | > 150 | CCn1c(CC#N)nc2c(N3C[C@@H](C)N(C(C)c4ccc5c(c4)CN(C)C5=O)C[C@@H]3C)nc(=O)n(C)c21 (stereo partly drawn) [Compound A101, 2-(6-((2S,5R)-2,5-dimethyl-4-(1-(2-methyl-1-oxoisoindolin-5-yl)ethyl)piperazin-1-yl)-9-ethyl-3-methyl-2-oxo-3,9-dihydro-2H-purin-8-yl)acetonitrile] |
| 0.026 | > 10 | CC(c1ccc2nccnc2c1)N1C[C@H](C)N(c2c(F)c(=O)n(C)c3c2nc(CC#N)n3C)C[C@H]1C (single isomer, unassigned) [Compound A22a] |
| 0.014 | > 150 | C=C(C)c1cc(C(C)N2C[C@H](C)N(c3nc(=O)n(C)c4c3nc(CC#N)n4CC)C[C@H]2C)ccc1F (stereo partly drawn) [Compound A135, 2-(9-ethyl-6-((2S,5R)-4-(1-(4-fluoro-3-(prop-1-en-2-yl)phenyl)ethyl)-2,5-dimethylpiperazin-1-yl)-3-methyl-2-oxo-3,9-dihydro-2H-purin-8-yl)acetonitrile] |
| 0.006 | 77.9 | Cc1cnc2ccc(C(C)N3C[C@H](C)N(c4nc(=O)n(C)c5c4nc(CC#N)n5C)C[C@H]3C)cc2n1 (single isomer, unassigned) [Compound A49a] |
| 0.023 | 50.9 | CCn1c(CC#N)nc2c(N3C[C@@H](C)N(C(C)c4ccc5nc(C)sc5c4)C[C@@H]3C)nc(=O)n(C)c21 (single isomer, unassigned) [Compound A56b] |
| 0.176 | 0.666 | CC(c1ccc(C(F)(F)F)cn1)N1C[C@H](C)N(c2nc(=O)n(C)c3c2nc(CC#N)n3C)C[C@H]1C (single isomer, unassigned) [Compound A148b] |
